# Measured values: patent publication US20230150986A1, “ANTAGONISTS OF THE MUSCARINIC ACETYLCHOLINE RECEPTOR M4” (Vanderbilt University, priority 2019, published 2023)
# Biological target: T1, Human M4 (Homo sapiens, UniProt P08173)
# T1 construct: Human or rat M4 cDNA, along with the chimeric G protein Gq,5, were transfected into Chinese hamster ovary (CHO-K1) cells; expressed in transfected cells; host or cells: CHO-K1 (M4/Gqi5/CHO)
# T1 sequence (P08173 1-479): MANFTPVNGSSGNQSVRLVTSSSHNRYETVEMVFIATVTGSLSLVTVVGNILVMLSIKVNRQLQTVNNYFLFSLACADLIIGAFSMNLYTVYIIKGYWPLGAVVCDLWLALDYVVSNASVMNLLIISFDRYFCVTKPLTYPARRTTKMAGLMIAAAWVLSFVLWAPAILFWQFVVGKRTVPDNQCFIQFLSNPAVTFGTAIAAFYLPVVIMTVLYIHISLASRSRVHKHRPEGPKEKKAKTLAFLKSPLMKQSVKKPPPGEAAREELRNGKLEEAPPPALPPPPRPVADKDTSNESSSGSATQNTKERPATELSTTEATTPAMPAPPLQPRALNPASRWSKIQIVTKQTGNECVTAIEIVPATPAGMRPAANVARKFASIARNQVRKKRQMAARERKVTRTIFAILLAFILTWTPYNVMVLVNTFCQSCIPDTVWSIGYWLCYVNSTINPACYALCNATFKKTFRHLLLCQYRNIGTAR
# Assay: mAChR M4 cell-based functional assay (calcium flux, decrease of EC80 acetylcholine response)
# Conditions: for Human M4 Emin: % ACh maximum at 30 μM; for IC50: CHO-K1 cells with human M4 and Gqi5, EC80 acetylcholine
# Protocol: Human or rat M4 cDNA, along with the chimeric G protein Gq,5, were transfected into Chinese hamster ovary (CHO-K1) cells purchased from the American Type Culture Collection using Lipofectamine2000. M4/Gqi5/CHO cells were grown in Ham's F-12 medium containing 10% heat-inactivated fetal bovine serum (FBS), 20 mM HEPES, 500 μg/mL G^418 sulfate, and 200 μg/mL Hygromycin B.
# For high throughput measurement of agonist-evoked increases in intracellular calcium, CHO-K1 cells stably expressing muscarinic receptors were plated in growth medium lacking G418 and hygromycin at 15,000 cells/20 μL/well in Greiner 384-well black-walled, tissue culture (TC)-treated, clear-bottom plates (VWR). Cells were incubated overnight at 37° C. and 5% CO2. The next day, cells were washed using an ELX 405 (BioTek) with assay buffer; the final volume was then aspirated to 20 μL. Next, 20 μL of a 2.3 μM stock of Fluo-4/acetoxymethyl ester (Invitrogen, Carlsbad, Calif.), prepared as a 2.3 mM stock in DMSO and mixed in a 1:1 ratio with 10% (w/v) Pluronic F-127 and diluted in assay buffer, was added to the wells and the cell plates were incubated for 50 min at 37° C. and 5% CO2. Dye was removed by washing with the ELX 405 and the final volume was aspirated to 20 μL. Compound master plates were formatted in a 10 point concentration-response curve (CRC) format (1:3 dilutions) in 100% DMSO with a starting concentration of 10 or 1 mM using a BRAVO liquid handler (Agilent). Test compound CRCs were then transferred to daughter plates (240 nL) using the Echo acoustic plate reformatter (Labcyte, Sunnyvale, Calif.) and then diluted into assay buffer (40 μL) to a 2× stock using a Thermo Fisher Combi (Thermo Fisher Scientific, Waltham, Mass.).
# Calcium flux was measured using the Functional Drug Screening System (FDSS) 6000 or 7000 (Hamamatsu Corporation, Tokyo, Japan) as an increase in the fluorescent static ratio. Compounds were applied to cells (20 μL, 2×) using the automated system of the FDSS at 2 seconds into the protocol and the data were collected at 1 Hz. At 143 s, 10 μL of an EC20 concentration of the muscarinic receptor agonist acetylcholine was added (5×), followed by the addition of […] of an EC80 concentration of acetylcholine at the 268 s time point (5×). Agonist activity was analyzed as a concentration-dependent increase in calcium mobilization upon compound addition. Positive allosteric modulator activity was analyzed as a concentration-dependent increase in the EC2o acetylcholine response. Antagonist activity was analyzed as a concentration-dependent decrease in the EC80 acetylcholine response; for the purposes of the tables herein, an IC50 (inhibitory concentration 50) was calculated as a concentration-dependent decrease of the response elicited by an EC80 concentration of acetylcholine. Concentration-response curves were generated using a four-parameter logistical equation in XLFit curve fitting software (IDBS, Bridgewater, N.J.) for Excel (Microsoft, Redmond, Wash.) or Prism (GraphPad Software, Inc., San Diego, Calif.) or the Dotmatics software platform (Dotmatics, Bishop's Stortford, UK).
# Compounds were synthesized as described above. Activity (IC50 and Emin) was determined in the mAChR M4 cell-based functional assay as described above and the data are shown in Table 2.
Human M4 Emin,IC50,Compound
3%,3300 nM,OC1(CN2C[C@H]3C[C@H](Nc4ccc(-c5cc(F)cc(F)c5F)nn4)C[C@H]3C2)CCCCCC1 [Compound 62]
11%,1010 nM,"Fc1cc(F)c(F)c(-c2ccc(N[C@H]3C[C@@H]4CN(Cc5ccc6c(c5)OC(F)(F)O6)C[C@@H]4C3)nn2)c1 [Compound 37, (3aR,5s,6aS)-2-((2,2-difluorobenzo[d][1,3]dioxol-5-yl)methyl)-N-(6-(2,3,5-trifluorophenyl)pyridazin-3-yl)octahydrocyclopenta[c]pyrrol-5-amine]"
2%,3.1 nM,"Fc1cc(F)c(F)c(-c2ccc(N[C@@H]3C[C@H]4CN(CC5CCOCC5)C[C@H]4[C@@H]3F)nn2)c1 (racemic) [Compound 86, (3aR,4R,5S,6aS)-4-fluoro-2-((tetrahydro-2H-pyran-4-yl)methyl)-N-(6-(2,3,5-trifluorophenyl)pyridazin-3-yl)octahydrocyclopenta[c]pyrrol-5-amine and (3aS,4S,5R,6aR)-4-fluoro-2-((tetrahydro-2H-pyran-4-yl)methyl)-N-(6-(2,3,5-trifluorophenyl)pyridazin-3-yl)octahydrocyclopenta[c]pyrrol-5-amine]"
3%,35 nM,"[2H]C([2H])([C@@H]1COCCO1)N1C[C@H]2C[C@H](Nc3ccc(-c4cc(F)cc(F)c4F)nn3)C[C@H]2C1 [Compound 42, (3aR,5s,6aS)-2-(((R)-1,4-dioxan-2-yl)methyl-d2)-N-(6-(2,3,5-trifluorophenyl)pyridazin-3-yl)octahydrocyclopenta[c]pyrrol-5-amine]"
3%,57.5 nM,"Fc1cc(F)c(F)c(-c2ccc(N[C@H]3C[C@@H]4CN(CC5CCCCC5)C[C@@H]4C3)nn2)c1 [Compound 3, (3aR,5s,6aS)-2-(cyclohexylmethyl)-N-(6-(2,3,5-trifluorophenyl)pyridazin-3-yl)octahydrocyclopenta[c]pyrrol-5-amine]"
8%,4500 nM,"[2H]C([2H])(CCOC)N1C[C@H]2C[C@H](Nc3ccc(-c4cc(F)cc(F)c4F)nn3)C[C@H]2C1 [Compound 80, (3aR,5s,6aS)-2-(3-methoxypropyl-1,1-d2)-N-(6-(2,3,5-trifluorophenyl)pyridazin-3-yl)octahydrocyclopenta[c]pyrrol-5-amine]"
4%,3.09 nM,"Fc1cc(F)c(F)c(-c2ccc(N[C@H]3C[C@@H]4CN(CCC5CCOCC5)C[C@@H]4C3)nn2)c1 [Compound 4, (3aR,5s,6aS)-2-(2-(tetrahydro-2H-pyran-4-yl)ethyl)-N-(6-(2,3,5-trifluorophenyl)pyridazin-3-yl)octahydrocyclopenta[c]pyrrol-5-amine]"
4%,79.2 nM,"Fc1cc(F)c(F)c(-c2ccc(N[C@H]3C[C@@H]4CN(Cc5cccc(F)n5)C[C@@H]4C3)nn2)c1 [Compound 22, (3aR,5s,6aS)-2-((6-fluoropyridin-2-yl)methyl)-N-(6-(2,3,5-trifluorophenyl)pyridazin-3-yl)octahydrocyclopenta[c]pyrrol-5-amine]"
3%,6.09 nM,"OC1(CN2C[C@H]3C[C@H](Nc4ccc(-c5cc(F)cc(F)c5F)nn4)C[C@H]3C2)CCCCC1 [Compound 9, 1-(((3aR,5s,6aS)-5-((6-(2,3,5-trifluorophenyl)pyridazin-3-yl)amino)hexahydrocyclopenta[c]pyrrol-2(1H)-yl)methyl)cyclohexan-1-ol]"
3%,2.22 nM,"Fc1cc(F)c(F)c(-c2ccc(N[C@H]3C[C@@H]4CN(Cc5cc6n(n5)CCOC6)C[C@@H]4C3)nn2)c1 [Compound 36, (3aR,5s,6aS)-2-((6,7-dihydro-4H-pyrazolo[5,1-c][1,4]oxazin-2-yl)methyl)-N-(6-(2,3,5-trifluorophenyl)pyridazin-3-yl)octahydrocyclopenta[c]pyrrol-5-amine]"
3%,25 nM,"Fc1cc(F)c(F)c(-c2ccc(N[C@H]3C[C@@H]4CN(CC5CC(F)(F)C5)C[C@@H]4C3)nn2)c1 [Compound 57, (3aR,5s,6aS)-2-((3,3-difluorocyclobutyl)methyl)-N-(6-(2,3,5-trifluorophenyl)pyridazin-3-yl)octahydrocyclopenta[c]pyrrol-5-amine]"
3%,4.4 nM,[2H]C1([2H])[C@H](Nc2ccc(-c3cc(F)cc(F)c3F)nn2)C([2H])([2H])[C@H]2CN(CC3CCOCC3)C[C@H]21 [Compound 70]
4%,210 nM,"CCOCCN1C[C@H]2C[C@H](Nc3ccc(-c4cc(F)cc(F)c4F)nn3)C[C@H]2C1 [Compound 74, (3aR,5s,6aS)-2-(2-ethoxyethyl)-N-(6-(2,3,5-trifluorophenyl)pyridazin-3-yl)octahydrocyclopenta[c]pyrrol-5-amine]"
4%,66 nM,"[2H]C([2H])(CC1COC1)N1C[C@H]2C[C@H](Nc3ccc(-c4cc(F)cc(F)c4F)nn3)C[C@H]2C1 [Compound 85, (3aR,5s,6aS)-2-(2-(oxetan-3-yl)ethyl-1,1-d2)-N-(6-(2,3,5-trifluorophenyl)pyridazin-3-yl)octahydrocyclopenta[c]pyrrol-5-amine]"
3%,8.64 nM,"[2H]C(C)(C1CCOCC1)N1C[C@H]2C[C@H](Nc3ccc(-c4cc(F)cc(F)c4F)nn3)C[C@H]2C1 (stereo partly drawn) [Compound 12, (3aR,5s,6aS)-2-(1-(tetrahydro-2H-pyran-4-yl)ethyl-1-d)-N-(6-(2,3,5-trifluorophenyl)pyridazin-3-yl)octahydrocyclopenta[c]pyrrol-5-amine]"
2%,25.8 nM,"[2H]C([2H])(N1C[C@H]2C[C@H](Nc3ccc(-c4cc(F)cc(F)c4F)nn3)C[C@H]2C1)C1(C)CCCOC1 (stereo partly drawn) [Compound 49, (3aR,5s,6aS)-2-((3-methyltetrahydro-2H-pyran-3-yl)methyl-d2)-N-(6-(2,3,5-trifluorophenyl)pyridazin-3-yl)octahydrocyclopenta[c]pyrrol-5-amine]"
16%,5210 nM,"Fc1cc(F)c(F)c(-c2ccc(N[C@H]3C[C@@H]4CN(Cc5ccnnc5)C[C@@H]4C3)nn2)c1 [Compound 38, (3aR,5s,6aS)-2-(pyridazin-4-ylmethyl)-N-(6-(2,3,5-trifluorophenyl)pyridazin-3-yl)octahydrocyclopenta[c]pyrrol-5-amine]"

Compound,Human M4 Emin,IC50
"[2H]C([2H])(COC(C)(C)C)N1C[C@H]2C[C@H](Nc3ccc(-c4cc(F)cc(F)c4F)nn3)C[C@H]2C1 [Compound 56, (3aR,5s,6aS)-2-(2-(tert-butoxy)ethyl-1,1-d2)-N-(6-(2,3,5-trifluorophenyl)pyridazin-3-yl)octahydrocyclopenta[c]pyrrol-5-amine]",3%,3 nM
